Laboratory results from US7026339B2, “Inhibitors of HCV NS5B polymerase” (priority 2003, dated 2006).

system: HuH-7 replicon cells 5–15 and 9–13 (HCV replication); assay: Inhibition of viral replication in HuH-7 replicon cells (HCV RNA / GAPDH RNA by multiplex RT-PCR); type: cell-based; conditions: Hepatitis C virus, 72 h; inhibiting 50% of replication; HuH-7 replicon cells, 3 days; read-out: IC50
Summary of the method: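 Replicon cells seeded at 7×10^3 cells/well, grown 24 h, then exposed 3 days at 37 °C to compound at final 100 μM–1 μM (1% DMSO). Multiplex TaqMan RT-PCR on total RNA quantified HCV 5′-UTR and GAPDH RNA against a standard curve; HCV/GAPDH ratio reported as percent of untreated control.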

| SMILES | IC50 [µM] |
| --- | --- |
| COc1cccc(CC(=O)N/N=C/c2ccccc2OS(=O)(=O)c2ccc(-c3cc(C(F)(F)F)on3)s2)c1 [Compound 192, 2-((E)-{2-[2-(3-methoxyphenyl)acetyl]hydrazono}methyl)-phenyl 5-[5-(trifluoromethyl)isoxazol-3-yl]thiophene-2-sulfonate] | < 5 |
| COc1cccc(CC(=O)N/N=C/c2c(Cl)cccc2OS(=O)(=O)c2ccc(C(F)(F)F)cc2)c1 [Compound 193, 3-chloro-2-((E)-{[(3-methoxyphenyl)acetyl]hydrazono}methyl)-phenyl 4-(trifluoromethyl)benzenesulfonate] | < 5 |
| O=C(Cc1cccc(Cl)c1)N/N=C/c1c(Cl)cccc1OS(=O)(=O)c1ccc(C(F)(F)F)cc1 [Compound 194, 3-chloro-2-((E)-{[(3-chlorophenyl)acetyl]hydrazono}methyl)-phenyl 4-(trifluoromethyl)benzenesulfonate] | < 5 |
| COc1cccc(CC(=O)N/N=C/c2ccccc2OS(=O)(=O)c2ccc(C(C)=O)cc2)c1 [Compound 195, 2-((E)-{2-[2-(3-methoxyphenyl)acetyl]hydrazono}methyl)-phenyl 4-acetylbenzenesulfonate] | < 5 |
| COc1cccc(CC(=O)N/N=C/c2ccccc2OS(=O)(=O)c2ccc(-n3cccn3)cc2)c1 [Compound 196, 2-((E)-{2-[2-(3-methoxyphenyl)acetyl]hydrazono}methyl)-phenyl 4-(1H-pyrazol-1-yl)benzenesulfonate] | < 5 |
| COc1cccc(CC(=O)N/N=C/c2ccccc2OS(=O)(=O)c2ccc(-c3cnco3)cc2)c1 [Compound 197, 2-((E)-{2-[2-(3-methoxyphenyl)acetyl]hydrazono}methyl)-phenyl 4-(1,3-oxazol-5-yl)benzenesulfonate] | < 5 |
| CCC(C)(C)c1ccc(S(=O)(=O)Oc2ccccc2/C=N/NC(=O)Cc2cccc(OC)c2)cc1 [Compound 198, 2-((E)-{2-[2-(3-methoxyphenyl)acetyl]hydrazono}methyl)-phenyl 4-(1,1-dimethylpropyl)benzenesulfonate] | < 5 |
| CCCCOc1ccc(S(=O)(=O)Oc2ccccc2/C=N/NC(=O)Cc2cccc(OC)c2)cc1 [Compound 199, 2-((E)-{2-[2-(3-methoxyphenyl)acetyl]hydrazono}methyl)-phenyl 4-butoxybenzenesulfonate] | < 5 |
| COc1cccc(CC(=O)N/N=C/c2ccccc2OS(=O)(=O)c2ccc(-c3cnco3)s2)c1 [Compound 200, 2-((E)-{2-[2-(3-methoxyphenyl)acetyl]hydrazono}methyl)-phenyl 5-(1,3-oxazol-5-yl)thiophene-2-sulfonate] | < 5 |
| COc1cccc(CC(=O)N/N=C/c2ccccc2OS(=O)(=O)c2ccc(Oc3ccccc3)nc2)c1 [Compound 201, 2-((E)-{2-[2-(3-methoxyphenyl)acetyl]hydrazono}methyl)-phenyl 6-phenoxypyridine-3-sulfonate] | < 5 |
| COc1cccc(CC(=O)N/N=C/c2ccccc2OS(=O)(=O)c2ccc(Oc3ccc(F)cc3)cc2)c1 [Compound 202, 2-((E)-{2-[2-(3-methoxyphenyl)acetyl]hydrazono}methyl)-phenyl 4-(4-fluorophenoxy)benzenesulfonate] | > 50 |
| COc1cccc(CC(=O)N/N=C/c2c(C)cccc2OS(=O)(=O)c2ccc(C(F)(F)F)cc2)c1 [Compound 203, 2-((E)-{[(3-methoxyphenyl)acetyl]hydrazono}methyl)-3-methylphenyl 4-(trifluoromethyl)benzenesulfonate] | < 5 |
| COc1cccc(CC(=O)N/N=C/c2c(C)cccc2OS(=O)(=O)c2ccc(C)cc2)c1 [Compound 204, 2-((E)-{[(3-methoxyphenyl)acetyl]hydrazono}methyl)-3-methylphenyl 4-methylbenzenesulfonate] | < 5 |
| Cc1ccc(S(=O)(=O)Oc2cccc(F)c2/C=N/NC(=O)Cc2cccc(Cl)c2)cc1 [Compound 205, 2-((E)-{[(3-chlorophenyl)acetyl]hydrazono}methyl)-3-fluorophenyl 4-methylbenzenesulfonate] | 5 to 50 |
| O=C(Cc1cccc(Cl)c1)N/N=C/c1c(F)cccc1OS(=O)(=O)c1ccc(C(F)(F)F)cc1 [Compound 206, 2-((E)-{[(3-chlorophenyl)acetyl]hydrazono}methyl)-3-fluorophenyl 4-(trifluoromethyl)benzenesulfonate] | < 5 |
| COc1cccc(CC(=O)N/N=C/c2c(F)cccc2OS(=O)(=O)c2ccc(C(F)(F)F)cc2)c1 [Compound 207, 3-fluoro-2-((E)-{[(3-methoxyphenyl)acetyl]hydrazono}methyl)-phenyl 4-(trifluoromethyl)benzenesulfonate] | < 5 |
| COc1cccc(CC(=O)N/N=C/c2c(F)cccc2OS(=O)(=O)c2ccc(C)cc2)c1 [Compound 208, 3-fluoro-2-((E)-{[(3-methoxyphenyl)acetyl]hydrazono}methyl)-phenyl 4-methylbenzenesulfonate] | 5 to 50 |

| SMILES | IC50 [µM] |
| --- | --- |
| COc1cccc(CC(=O)N/N=C/c2ccc(Cl)cc2OS(=O)(=O)c2ccc(C)cc2)c1 [Compound 209, 5-chloro-2-((E)-{[(3-methoxyphenyl)acetyl]hydrazono}methyl)-phenyl 4-methylbenzenesulfonate] | < 5 |
| COc1cccc(CC(=O)N/N=C/c2ccc(Cl)cc2OS(=O)(=O)c2ccc(C(F)(F)F)cc2)c1 [Compound 210, 5-chloro-2-((E)-{[(3-methoxyphenyl)acetyl]hydrazono}methyl)-phenyl 4-(trifluoromethyl)benzenesulfonate] | 5 to 50 |
| O=C(Cc1cccc(Cl)c1)N/N=C/c1ccc(F)cc1OS(=O)(=O)c1ccc(C(F)(F)F)cc1 [Compound 211, 2-((E)-{[(3-chlorophenyl)acetyl]hydrazono}methyl)-5-fluorophenyl 4-(trifluoromethyl)benzenesulfonate] | 5 to 50 |
| Cc1ccc(S(=O)(=O)Oc2cc(F)ccc2/C=N/NC(=O)Cc2cccc(Cl)c2)cc1 [Compound 212, 2-((E)-{[(3-chlorophenyl)acetyl]hydrazono}methyl)-5-fluorophenyl 4-methylbenzenesulfonate] | < 5 |
| O=C(Cc1cccc(Cl)c1)N/N=C/c1ncccc1OS(=O)(=O)c1ccc(C(F)(F)F)cc1 [Compound 213, 2-((E)-{2-[2-(3-chlorophenyl)acetyl]hydrazono}methyl)-pyridin-3-yl 4-(trifluoromethyl)benzenesulfonate] | 5 to 50 |
| COc1cccc(CC(=O)N/N=C/c2ncccc2OS(=O)(=O)c2ccc(C(F)(F)F)cc2)c1 [Compound 214, 2-((E)-{2-[2-(3-methoxyphenyl)acetyl]hydrazono}methyl)-pyridin-3-yl 4-(trifluoromethyl)benzenesulfonate] | 5 to 50 |
| O=C(Cc1cccc(Cl)c1)N/N=C/c1cccnc1OS(=O)(=O)c1ccc(C(F)(F)F)cc1 [Compound 215, 3-((E)-{2-[2-(3-chlorophenyl)acetyl]hydrazono}methyl)-pyridin-2-yl 4-(trifluoromethyl)benzenesulfonate] | > 50 |
| COc1cccc(CC(=O)N/N=C/c2ccccc2OS(=O)(=O)c2ccc(N3CCOCC3)nc2)c1 [Compound 216, 2-((E)-{2-[2-(3-methoxyphenyl)acetyl]hydrazono}methyl)-phenyl 6-morpholin-4-ylpyridine-3-sulfonate] | 5 to 50 |
| COc1cccc(CC(=O)N/N=C/c2ccccc2OS(=O)(=O)c2ccc(Oc3cccnc3)cc2)c1 [Compound 217, 2-((E)-{2-[2-(3-methoxyphenyl)acetyl]hydrazono}methyl)-phenyl 4-(pyridin-3-yloxy)benzenesulfonate] | 5 to 50 |
| COc1cccc(CC(=O)N/N=C/c2ccccc2OS(=O)(=O)c2ccc(Oc3ncc(C(F)(F)F)cc3Cl)cc2)c1 [Compound 218, 2-((E)-{2-[2-(3-methoxyphenyl)acetyl]hydrazono}methyl)-phenyl 4-{[3-chloro-5-(trifluoromethyl)pyridin-2-yl]oxy}benzenesulfonate] | > 50 |
| C/C(=N\NC(=O)Cc1ccccc1)c1ccccc1OS(=O)(=O)c1ccc(C(F)(F)F)cc1 [Compound 219, 2-[(1E)-N-(phenylacetyl)ethanehydrazonoyl]phenyl4-(trifluoromethyl)benzenesulfonate] | > 50 |
| COc1cccc(CC(=O)N/N=C(\C)c2cc(F)ccc2OS(=O)(=O)c2ccc(C(F)(F)F)cc2)c1 [Compound 220, 4-fluoro-2-{(1E)-N-[(3-methoxyphenyl)acetyl]ethanehydrazonoyl}-phenyl 4-(trifluoromethyl)-benzenesulfonate] | > 50 |
| COc1cccc(CC(=O)N/N=C(\C)c2ccccc2OS(=O)(=O)c2ccc(C(F)(F)F)cc2)c1 [Compound 221, 2-{(1E)-N-[(3-methoxyphenyl)acetyl]ethanehydrazonoyl}-phenyl 4-(trifluoromethyl)benzenesulfonate] | > 50 |
| COc1cccc(CC(=O)N/N=C(\C)c2ccc(F)cc2OS(=O)(=O)c2ccc(C(F)(F)F)cc2)c1 [Compound 222, 5-fluoro-2-{(1E)-N-[(3-methoxyphenyl)acetyl]ethanehydrazonoyl}-phenyl 4-(trifluoromethyl)benzenesulfonate] | > 50 |
| C/C(=N\NC(=O)Cc1ccc(Cl)c(Cl)c1)c1ccccc1OS(=O)(=O)c1ccc(C(F)(F)F)cc1 [Compound 223, 2-{(1E)-N-[(3,4-dichlorophenyl)acetyl]ethanehydrazonoyl}-phenyl 4-(trifluoromethyl)benzenesulfonate] | > 50 |
| COC(=O)CCc1ccc(S(=O)(=O)Oc2ccccc2/C=N/NC(=O)Cc2cccc(OC)c2)cc1 [Compound 224, methyl 3-(4-{[2-((E)-{[(3-methoxyphenyl)acetyl]hydrazono}methyl)-phenoxy]sulfonyl}phenyl)propanoate] | > 50 |
| COc1cccc(CC(=O)N/N=C/c2ccccc2OS(=O)(=O)c2ccc(OCc3cnc(Cl)s3)cc2)c1 [Compound 225, 2-((E)-{2-[2-(3-methoxyphenyl)acetyl]hydrazono}methyl)-phenyl 4-[(2-chloro-1,3-thiazol-5-yl)methoxy]benzenesulfonate] | > 50 |
